One experiment concerns the target T1, ATM (Homo sapiens, UniProt Q13315).
T1 construct: detecting phosphorylation of Chk2 in a human non-small cell lung cancer cell line NCI-H460 (ATCC company); host or cells: NCI-H460 human non-small cell lung cancer cells
As to the kind of experiment: ATM inhibition test (phosphorylation of Chk2 generated by ionizing radiation, AlphaScreen SureFire). It is filed as cell-based. Particulars: phosphorylated Chk2 in NCI-H460 cells, ionizing radiation 8Gy, 1 hour after test compound treatment; read-out: ATM inhibitory activity. In a few lines:
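NCI-H460 cells, compound 1 h pre-treatment, 8Gy IR, further 1 h at 37° C in 5% CO2. Read-out: phospho-Chk2 via AlphaScreen SureFire. % inhibition relative to IR-induced signal window (irradiated vs non-irradiated drug-free wells).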
On the technique in general: Bead proximity is the source of the signal in Alpha formats.

The subject of experiment [1] is human non-small cell lung cancer cell line NCI-H460. As to the kind of experiment: Cell proliferation inhibition test by sensitivity-enhancing to ionizing radiation (Cell Titer Glo). It is filed as cell-based. Particulars: concentration in which SER became 2, NCI-H460 cells, ionizing radiation 2 Gy, cultured 120 hour. The gist of the method:
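Radiosensitisation measured as SER, a ratio of Cell Titer Glo luminescence in irradiated vs unirradiated plates relative to DMSO; SER2, the concentration yielding SER 2, came from sigmoidal regression. Compound (0.1% DMSO) was given 24 h post-seeding, 2 Gy applied 30 min later, then 120 hour culture at 37° C.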
For orientation: ATP-based viability assays read luminescence as a measure of living cells.

Consider 19 compounds from patent US9586951B2 (FUJIFILM Corporation, priority 2013, dated 2017).

T1 sequence (Q13315 whole entry): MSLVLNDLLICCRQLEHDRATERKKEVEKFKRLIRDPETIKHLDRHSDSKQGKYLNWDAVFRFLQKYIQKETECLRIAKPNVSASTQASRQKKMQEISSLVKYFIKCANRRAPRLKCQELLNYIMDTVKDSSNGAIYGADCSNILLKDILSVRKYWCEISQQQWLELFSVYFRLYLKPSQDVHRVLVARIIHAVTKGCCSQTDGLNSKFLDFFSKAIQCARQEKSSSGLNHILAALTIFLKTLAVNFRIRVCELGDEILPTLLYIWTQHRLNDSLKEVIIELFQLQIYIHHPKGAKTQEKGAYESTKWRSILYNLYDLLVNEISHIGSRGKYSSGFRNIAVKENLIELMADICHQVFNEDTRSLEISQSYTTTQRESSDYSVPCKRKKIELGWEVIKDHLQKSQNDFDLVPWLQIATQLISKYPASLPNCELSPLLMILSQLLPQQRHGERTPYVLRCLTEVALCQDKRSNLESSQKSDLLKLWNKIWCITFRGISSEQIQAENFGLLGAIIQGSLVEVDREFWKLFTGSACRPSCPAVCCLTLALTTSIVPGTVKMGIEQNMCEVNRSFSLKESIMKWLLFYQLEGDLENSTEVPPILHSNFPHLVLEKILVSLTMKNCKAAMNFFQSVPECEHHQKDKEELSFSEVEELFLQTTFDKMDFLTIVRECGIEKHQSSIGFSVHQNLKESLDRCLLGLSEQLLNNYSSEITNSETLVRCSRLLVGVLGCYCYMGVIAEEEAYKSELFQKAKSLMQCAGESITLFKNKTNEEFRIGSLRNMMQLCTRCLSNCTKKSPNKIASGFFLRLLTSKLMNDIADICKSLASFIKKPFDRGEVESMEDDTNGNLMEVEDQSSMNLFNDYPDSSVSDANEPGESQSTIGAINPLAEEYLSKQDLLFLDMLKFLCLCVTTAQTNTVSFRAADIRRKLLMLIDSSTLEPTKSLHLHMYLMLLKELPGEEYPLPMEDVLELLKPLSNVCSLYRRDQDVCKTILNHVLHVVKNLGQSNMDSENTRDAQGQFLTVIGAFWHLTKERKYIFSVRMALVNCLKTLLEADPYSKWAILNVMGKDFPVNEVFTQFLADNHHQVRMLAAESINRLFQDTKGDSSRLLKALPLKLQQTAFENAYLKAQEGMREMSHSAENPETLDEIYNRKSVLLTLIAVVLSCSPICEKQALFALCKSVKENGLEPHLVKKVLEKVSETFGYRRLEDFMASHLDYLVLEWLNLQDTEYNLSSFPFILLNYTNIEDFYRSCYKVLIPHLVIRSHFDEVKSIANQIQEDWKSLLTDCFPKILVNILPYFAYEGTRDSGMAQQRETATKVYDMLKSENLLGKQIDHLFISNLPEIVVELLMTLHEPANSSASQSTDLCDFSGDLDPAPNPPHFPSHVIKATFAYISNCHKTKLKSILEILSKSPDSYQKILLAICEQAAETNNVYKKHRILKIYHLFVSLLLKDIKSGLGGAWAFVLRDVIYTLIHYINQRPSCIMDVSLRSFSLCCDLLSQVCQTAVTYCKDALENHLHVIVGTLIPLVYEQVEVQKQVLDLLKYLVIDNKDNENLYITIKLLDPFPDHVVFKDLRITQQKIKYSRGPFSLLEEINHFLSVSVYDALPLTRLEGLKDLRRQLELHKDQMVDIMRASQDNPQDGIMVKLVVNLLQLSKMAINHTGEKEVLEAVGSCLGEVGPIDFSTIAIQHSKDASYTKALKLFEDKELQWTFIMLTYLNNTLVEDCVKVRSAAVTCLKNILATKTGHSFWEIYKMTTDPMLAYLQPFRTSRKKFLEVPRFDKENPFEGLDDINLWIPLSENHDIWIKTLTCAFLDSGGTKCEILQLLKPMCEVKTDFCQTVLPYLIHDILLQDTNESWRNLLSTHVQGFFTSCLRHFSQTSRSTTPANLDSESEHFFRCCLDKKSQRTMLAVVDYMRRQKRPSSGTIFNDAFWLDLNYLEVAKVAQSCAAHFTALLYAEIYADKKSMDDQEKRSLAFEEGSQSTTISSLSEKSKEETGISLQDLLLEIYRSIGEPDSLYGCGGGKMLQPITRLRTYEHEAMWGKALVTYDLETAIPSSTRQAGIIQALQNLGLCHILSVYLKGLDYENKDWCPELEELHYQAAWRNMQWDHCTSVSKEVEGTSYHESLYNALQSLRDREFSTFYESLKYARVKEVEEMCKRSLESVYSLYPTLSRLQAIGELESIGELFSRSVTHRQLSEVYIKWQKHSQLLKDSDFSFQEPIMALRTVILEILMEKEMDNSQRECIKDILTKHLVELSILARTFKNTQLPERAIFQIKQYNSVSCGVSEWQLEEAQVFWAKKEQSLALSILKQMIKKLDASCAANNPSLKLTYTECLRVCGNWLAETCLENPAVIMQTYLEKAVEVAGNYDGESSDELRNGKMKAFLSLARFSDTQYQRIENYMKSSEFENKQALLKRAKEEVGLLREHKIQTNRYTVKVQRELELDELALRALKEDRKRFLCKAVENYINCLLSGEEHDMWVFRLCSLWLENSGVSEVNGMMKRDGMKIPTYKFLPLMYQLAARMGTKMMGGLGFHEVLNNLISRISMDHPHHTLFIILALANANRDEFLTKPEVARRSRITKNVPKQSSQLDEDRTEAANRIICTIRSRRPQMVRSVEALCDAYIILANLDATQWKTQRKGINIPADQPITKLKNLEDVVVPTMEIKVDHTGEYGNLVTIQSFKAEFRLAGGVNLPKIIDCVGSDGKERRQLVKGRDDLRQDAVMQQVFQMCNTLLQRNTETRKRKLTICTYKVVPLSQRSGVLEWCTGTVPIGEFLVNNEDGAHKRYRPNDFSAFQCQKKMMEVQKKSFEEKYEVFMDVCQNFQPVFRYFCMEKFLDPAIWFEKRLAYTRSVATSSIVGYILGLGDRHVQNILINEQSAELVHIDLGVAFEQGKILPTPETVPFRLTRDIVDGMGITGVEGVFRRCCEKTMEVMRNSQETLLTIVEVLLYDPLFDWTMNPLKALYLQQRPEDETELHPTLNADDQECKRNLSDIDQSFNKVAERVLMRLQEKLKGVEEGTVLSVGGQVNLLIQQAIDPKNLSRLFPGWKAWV

Take `Cc1ccc(CNc2ccc3c(c2)Sc2cccc(-c4cc(N5CCOCC5)cc(=O)[nH]4)c2S3)nc1` [Example 1-12-13, 6-(7-(((5-Methylpyridin-2-yl)methyl)amino)thianthren-1-yl)-4-morpholino pyridin-2 (1H)-one]: the IC50 on ATM is under 100 nM. For the same compound, the SER2 (concentration at which the radiation sensitivity-enhancement ratio reaches 2) in experiment [1] (Homo sapiens, NCI-H460, 120 h) was in the range of 100 to 500 nM.

`Cc1ccc(C(C)Nc2ccc3c(c2)Sc2cccc(-c4cc(N5CCOCC5)cc(=O)[nH]4)c2S3)nc1` (centres unmarked) [Example 1-12-113, 6-(7-((1-(5-Methylpyridin-2-yl)ethyl)amino)thianthren-1-yl)-4-morpholino pyridin-2(1H)-one]: on ATM, the IC50 is under 100 nM. In experiment [1] (Homo sapiens, NCI-H460, 120 h), the SER2 (concentration at which the radiation sensitivity-enhancement ratio reaches 2) fell in the range of 100 to 500 nM.

Turning to “6-(7-(((5-Methyl pyridin-2- yl)(1-methyl pyrrolidin-3-yl) methyl)amino)thianthren-1- yl)-4-morpholino pyridin-2 (1H)-one [Example 1-22-9]”, the IC50 on ATM was under 100 nM. For the same compound, the SER2 (concentration at which the radiation sensitivity-enhancement ratio reaches 2) in experiment [1] was under 100 nM.

As for `Cc1cccc(C(CN(C)C)Nc2ccc3c(c2)Sc2cccc(-c4cc(N5CCOCC5)cc(=O)[nH]4)c2S3)n1` (centres unmarked) [Example 1-22-3, 6-(7-((2-(Dimethylamino)-1-(6-methylpyridin-2-yl)ethyl)amino)thianthren-1-yl)-4-morpholino pyridin-2 (1H)-one], the IC50 on ATM was under 100 nM. For the same compound, the SER2 (concentration at which the radiation sensitivity-enhancement ratio reaches 2) in experiment [1] (Homo sapiens, NCI-H460, 120 h) was under 100 nM.

As for `Cc1ccc(C(CCCN(C)C)Nc2ccc3c(c2)Sc2cccc(-c4cc(N5CCOCC5)cc(=O)[nH]4)c2S3)nc1` (centres unmarked) [Example 1-50-7, 6-(7-((4-(Dimethylamino)-1-(5-methylpyridin-2-yl)butyl)amino)thianthren-1-yl)-4-morpholino pyridin-2(1H)-one], the IC50 at ATM was under 100 nM. For the same compound, the SER2 (concentration at which the radiation sensitivity-enhancement ratio reaches 2) in experiment [1] (Homo sapiens, NCI-H460, 120 h) was in the range of 100 to 500 nM.

With `CC(Nc1ccc2c(c1)Sc1cccc(-c3cc(N4CCOCC4)cc(=O)[nH]3)c1S2)c1ncc(CO)cn1` (single isomer, unassigned) [Example 1-12-142-1, 6-(7-((1-(5-(hydroxymethyl)pyrimidin-2-yl)ethyl)amino)thianthren-1-yl)-4-morpholinopyridin-2(1H)-one], at ATM, the IC50 is under 100 nM. Also, the SER2 (concentration at which the radiation sensitivity-enhancement ratio reaches 2) in experiment [1] (Homo sapiens, NCI-H460, 120 h) was 100 to 500 nM.

Consider `CN(C)c1cncc(CNc2ccc3c(c2)Cc2cccc(-c4cc(N5CCOCC5)cc(=O)[nH]4)c2O3)c1` [Example 2-21-7, 6-(7-(((5-(Dimethylamino)pyridin-3-yl)methyl)amino)-9H-xanthen-4-yl)-4-morpholino pyridin-2(1H)-one], for which the IC50 at ATM is under 100 nM. Besides, the SER2 (concentration at which the radiation sensitivity-enhancement ratio reaches 2) in experiment [1] (Homo sapiens, NCI-H460, 120 h) fell in the range of 500 to 2000 nM.

In the case of `Cc1ccc(C(Nc2ccc3c(c2)Sc2cccc(-c4cc(N5CCOCC5)cc(=O)[nH]4)c2S3)C(C)C)nc1` (centres unmarked) [Example 1-12-121, 6-(7-((2-Methyl-1-(5-methylpyridin-2-yl)propyl)amino)thianthren-1-yl)-4-morpholino pyridin-2(1H)-one], the IC50 at ATM was under 100 nM. The SER2 (concentration at which the radiation sensitivity-enhancement ratio reaches 2) in experiment [1] (Homo sapiens, NCI-H460, 120 h) was 100 to 500 nM.

For `O=c1cc(N2CCOCC2)cc(-c2cccc3c2Sc2ccc(NCc4cccc(Cl)n4)cc2S3)[nH]1` [Example 1-12-6, 6-(7-(((6-Chloropyridin-2-yl)methyl)amino)thianthren-1-yl)-4-morpholino pyridin-2 (1H)-one], the IC50 on ATM was under 100 nM. In experiment [1] (Homo sapiens, NCI-H460, 120 h), the SER2 (concentration at which the radiation sensitivity-enhancement ratio reaches 2) lay in the range of 100 to 500 nM.

With `O=c1cc(N2CCOCC2)cc(-c2cccc3c2Oc2ccc(NCc4ccnc(Br)c4)cc2C3)[nH]1` [Example 2-2-53, 6-(7-(((2-Bromopyridin-4-yl)methyl)amino)-9H-xanthen-4-yl)-4-morpholino pyridin-2 (1H)-one], the IC50 on ATM was under 100 nM. Moreover, the SER2 (concentration at which the radiation sensitivity-enhancement ratio reaches 2) in experiment [1] (Homo sapiens, NCI-H460, 120 h) lay in the range of 500 to 2000 nM.

With `Cc1ccc(C2(Nc3ccc4c(c3)Sc3cccc(-c5cc(N6CCOCC6)cc(=O)[nH]5)c3S4)COC2)nc1` [Example 1-50-4, 6-(7-((3-(5-Methylpyridin-2-yl)oxetan-3-yl)amino)thianthren-1-yl)-4-morpholino pyridin-2(1H)-one], the IC50 on ATM was under 100 nM. Also, in experiment [1] (Homo sapiens, NCI-H460, 120 h), the SER2 (concentration at which the radiation sensitivity-enhancement ratio reaches 2) fell in the range of 100 to 500 nM.

In the case of `COc1ncc(CNc2ccc3c(c2)Sc2cccc(-c4cc(N5CCOCC5)cc(=O)[nH]4)c2O3)cn1` [Example 4-4-4, 6-(8-(((2-Methoxypyrimidin-5-yl)methyl)amino)phenoxathiin-4-yl)-4-morpholino pyridin-2 (1H)-one], the IC50 on ATM is under 100 nM. In addition, the SER2 (concentration at which the radiation sensitivity-enhancement ratio reaches 2) in experiment [1] (Homo sapiens, NCI-H460, 120 h) lay within 500 to 2000 nM.

For the compound `O=c1cc(N2CCOCC2)cc(-c2cccc3c2Sc2ccc(NC(CF)CN4CCCCC4)cc2S3)[nH]1` (centres unmarked) [Example 1-41-2, 6-(7-((1-Fluoro-3-(piperidin-1-yl)propan-2-yl)amino)thianthren-1-yl)-4-morpholinopyridin-2(1H)-one], the IC50 on ATM was under 100 nM. Besides, in experiment [1] (Homo sapiens), the SER2 (concentration at which the radiation sensitivity-enhancement ratio reaches 2) was 100 to 500 nM.

Consider `COc1ccnc(CNc2ccc3c(c2)Cc2ccnc(-c4cc(N5CCOCC5)cc(=O)[nH]4)c2O3)c1` [Example 2-41-4, 6-(7-(((4-Methoxypyridin-2-yl)methyl)amino)-5H-chromeno[2,3-c]pyridin-1-yl)-4-morpholino pyridin-2 (1H)-one], for which the IC50 at ATM is under 100 nM. The SER2 (concentration at which the radiation sensitivity-enhancement ratio reaches 2) in experiment [1] (Homo sapiens, NCI-H460, 120 h) lay within 100 to 500 nM.

Consider `O=c1cc(N2CCOCC2)cc(-c2cccc3c2Oc2ccc(NCc4cncc(-n5cccc5)c4)cc2S3)[nH]1` [Example 4-4-8, 6-(8-(((5-(1H-Pyrrol-1-yl)pyridin-3-yl)methyl)amino)phenoxathiin-4-yl)-4-morpholino pyridin-2(1H)-one], for which the IC50 at ATM was under 100 nM. In addition, the SER2 (concentration at which the radiation sensitivity-enhancement ratio reaches 2) in experiment [1] (Homo sapiens, NCI-H460, 120 h) was 100 to 500 nM.

For `O=c1cc(N2CCOCC2)cc(-c2cccc3c2Sc2ccc(NC(CF)CN4CCOCC4)cc2S3)[nH]1` (single isomer, unassigned) [Example 1-41-1-2, 6-(7-((1-fluoro-3-morpholinopropan-2-yl)amino)thianthren-1-yl)-4-morpholinopyridin-2(1H)-one], the IC50 on ATM is under 100 nM. For the same compound, the SER2 (concentration at which the radiation sensitivity-enhancement ratio reaches 2) in experiment [1] (Homo sapiens, NCI-H460, 120 h) is under 100 nM.

For `N#Cc1ccnc(CNc2ccc3c(c2)Sc2cccc(-c4cc(N5CCOCC5)cc(=O)[nH]4)c2S3)c1` [Example 1-12-28, 2-(((6-(4-Morpholino-6-oxo-1,6-dihydro-pyridin-2-yl)thianthren-2-yl)amino)methyl) isonicotinonitrile], the IC50 on ATM was under 100 nM. In addition, the SER2 (concentration at which the radiation sensitivity-enhancement ratio reaches 2) in experiment [1] (Homo sapiens, NCI-H460, 120 h) fell in the range of 100 to 500 nM.

For `COc1ccc(CNc2ccc3c(c2)Cc2cccc(-c4cc(N5CCOCC5)cc(=O)[nH]4)c2S3)cn1` [Example 3-8-10, 6-(7-(((6-Methoxypyridin-3-yl)methyl)amino)-9H-thioxanthen-4-yl)-4-morpholino pyridin-2(1H)-one], the IC50 at ATM was under 100 nM. In addition, the SER2 (concentration at which the radiation sensitivity-enhancement ratio reaches 2) in experiment [1] (Homo sapiens, NCI-H460, 120 h) was in the range of 100 to 500 nM.

`Cc1ccc(C(C)(C)Nc2ccc3c(c2)Sc2cccc(-c4cc(N5CCOCC5)cc(=O)[nH]4)c2S3)nc1` [Example 1-50-2, 6-(7-((2-(5-Methylpyridin-2-yl)propan-2-yl)amino)thianthren-1-yl)-4-morpholino pyridin-2(1H)-one]: the IC50 at ATM is under 100 nM. Moreover, in experiment [1] (Homo sapiens, NCI-H460, 120 h), the SER2 (concentration at which the radiation sensitivity-enhancement ratio reaches 2) was in the range of 100 to 500 nM.
